Five molecules from ChEMBL document CHEMBL4354822, “Ligand-Based Design of Nondimethylphenyl-Diarylpyrimidines with Improved Metabolic Stability, Safety, and Oral Pharmacokinetic Profiles” (J Med Chem, 2019) can be followed below.

One series deals with MT4. The experiment in a line: Cytotoxicity against human MT4 cells assessed as reduction in cell viability incubated for 5 days by MTT assay. It counts as functional. The following applies: MT4, 120 h.
A short description of series [1]: Aqueous solubility of compound at 2 mg measured for 24 hrs by HPLC analysis. It counts as physicochemical. The conditions noted are these: aqueous medium.
Series [2] has as its system Human immunodeficiency virus 1. Kind of series: Antiviral activity against HIV1 3B infected in human MT4 cells incubated assessed as reduction in virus-induced cytopathic effect for 5 days by MTT assay. It counts as functional, organism-based. The conditions noted are these: Human immunodeficiency virus 1, 3B, MT4, 120 h. For orientation: Protection from cytopathic effect is a common read-out in antiviral testing.

In series [3] the test system is Human immunodeficiency virus 1. Kind of series: Antiviral activity against HIV1 harboring reverse transcriptase Y181C mutant infected in human MT4 cells assessed as reduction in virus-induced cytopathic effect incubated for 5 days by MTT assay. It counts as functional, organism-based. The following applies: Human immunodeficiency virus 1, MT4, 120 h.
Series [4] deals with Human immunodeficiency virus 1. Kind of series: Antiviral activity against HIV1 harboring reverse transcriptase E138K mutant infected in human MT4 cells assessed as reduction in virus-induced cytopathic effect incubated for 5 days by MTT assay. The series is classed as functional, organism-based. The conditions noted are these: Human immunodeficiency virus 1, MT4, 120 h.
The test system of series [5] is Human immunodeficiency virus 1. Kind of series: Antiviral activity against HIV1 harboring reverse transcriptase L100I mutant infected in human MT4 cells assessed as reduction in virus-induced cytopathic effect incubated for 5 days by MTT assay. The following applies: Human immunodeficiency virus 1, MT4, 120 h. It counts as functional, organism-based.
Series [6] is described as follows: Intrinsic clearance in rat liver microsomes assessed per mg protein at 1 uM measured up to 45 mins in presence of NADPH by LC/MS/MS analysis. The series is classed as ADME, Microsome. The following applies: liver microsomes, read-out: CLH. (In general: Microsomes from liver hold many membrane-bound enzymes, among them those of drug oxidation.)
Series [7] can be described thus: Metabolic stability in human liver microsomes at 1 uM measured up to 45 mins in presence of NADPH by LC/MS/MS analysis. The series is classed as ADME, Microsome.
Series [8] in a line: Metabolic stability in rat liver microsomes at 1 uM measured up to 45 mins in presence of NADPH by LC/MS/MS analysis. The series is classed as ADME, Microsome. The conditions noted are these: liver microsomes.
Series [9] can be described thus: Intrinsic clearance in human liver microsomes assessed per mg protein at 1 uM measured up to 45 mins in presence of NADPH by LC/MS/MS analysis. The following applies: read-out: CLH. It counts as ADME, Microsome.
A short description of series [10]: Selectivity index, ratio of CC50 for human MT4 cells to EC50 for antiviral activity against HIV1 3B infected in human MT4 cells incubated for 5 days by MTT assay. It counts as toxicity, cell-based. The following applies: MT4 cells (uninfected for CC50; HIV-1 3B infected for EC50). A general note: Formazan colour is commonly taken as a measure of viable cells.

Series [11] relates to Human immunodeficiency virus 1. The experiment in a line: Antiviral activity against HIV1 harboring reverse transcriptase Y188L mutant infected in human MT4 cells assessed as reduction in virus-induced cytopathic effect incubated for 5 days by MTT assay. It counts as functional, organism-based. The following applies: Human immunodeficiency virus 1, MT4, 120 h.
Series [12] addresses Human immunodeficiency virus type 1 reverse transcriptase (Human immunodeficiency virus 1, UniProt Q72547). The experiment in a line: Inhibition of recombinant wild type HIV1 reverse transcriptase p66/p51 incubated for 40 mins by picogreen dye-based spectrofluorometric analysis.
In series [13] the test system is Human immunodeficiency virus 1. Kind of series: Ratio of EC50 for etravirine to EC50 for test compound for antiviral activity against HIV1 harboring reverse transcriptase L100I mutant infected in human MT4 cells assessed as reduction in virus-induced cytopathic effect incubated for 5 days by MTT assay. The series is classed as functional.
Series [14] concerns Human immunodeficiency virus 1. The experiment in a line: Ratio of EC50 for efavirenz to EC50 for test compound for antiviral activity against HIV1 harboring reverse transcriptase L100I mutant infected in human MT4 cells assessed as reduction in virus-induced cytopathic effect incubated for 5 days by MTT assay. It counts as functional.
In series [15] the test system is Human immunodeficiency virus 1. Kind of series: Antiviral activity against HIV1 harboring reverse transcriptase K103N mutant infected in human MT4 cells assessed as reduction in virus-induced cytopathic effect incubated for 5 days by MTT assay. It counts as functional, organism-based. The following applies: Human immunodeficiency virus 1, MT4, 120 h.
For series [16], the system named is Human immunodeficiency virus 1. The experiment in a line: Ratio of EC50 for rilpivirine to EC50 for test compound for antiviral activity against HIV1 harboring reverse transcriptase L100I mutant infected in human MT4 cells assessed as reduction in virus-induced cytopathic effect incubated for 5 days by MTT assay. The series is classed as functional.
The target in series [17] is Human immunodeficiency virus type 1 reverse transcriptase (Human immunodeficiency virus 1) (UniProt Q72547). The experiment in a line: Ratio of IC50 for nevirapine to IC50 for test compound for recombinant wild type HIV1 reverse transcriptase p66/p51.

For orientation: CC50 means the concentration that lowers cell viability or growth by half. A word on the solubility: it is the concentration that dissolves in the medium under given conditions. Low values mean a poorly soluble substance, high ones a readily soluble substance. As usually defined, the EC50 is the concentration needed to bring the measured effect to its halfway point. `Cc1cc(C#N)cc(C)c1Oc1nc(Nc2ccc(C#N)cc2)nc(N)c1Br` [ETRAVIRINE]: the CC50 with MT4 was > 4610 nM. The solubility at 24 h in [1] was < 1 µg/mL. Further, the 50% effective concentration (EC50) in [2] was determined as 6.3 nM; in series [3] it was 12 nM; in [4] it was 6.5 nM; in series [5], 7.1 nM.
For orientation: half-life means how long it takes for the measured level to halve. For the molecule `Cc1cc(-c2ccc(C#N)cc2)cc(C)c1Nc1ccnc(Nc2ccc(C#N)cc2)n1`, the solubility at 24 h in [1] is < 1 µg/mL. In addition, the microsomal CLint at 1 µM is 45 µL/min/mg in [6] and 47.4 µL/min/mg in [9]. The k el at 0.75 h, 1 µM in [7] is 0.00079 s⁻¹; in series [8] it was 0.00075 s⁻¹. Besides, the half-life at 1 µM in series [8] was determined as 15.4 min.
Molecule `CS(=O)(=O)O.N#Cc1ccc(Nc2nccc(Nc3c(F)cc(-c4ccc(C#N)cc4)cc3F)n2)cc1` gave a solubility at 24 h in [1] of 0.88 µg/mL.
Still for that read-out and setting: the figure for `N#Cc1ccc(Nc2nccc(Nc3c(F)cc(-c4ccc(C#N)cc4)cc3F)n2)cc1.O=C(O)C(F)(F)F` is 0.35 µg/mL.
By IC50 is commonly meant the concentration needed to halve the response being measured. For the molecule `Cc1cc(-c2ccc(C#N)cc2)cc(Cl)c1Oc1ccnc(Nc2ccc(C#N)cc2)n1`, the CC50 in the series with MT4 is > 286000 nM. In addition, in [10], the selectivity ratio at 120 h is > 86200. The EC50 in [2] was 3.4 nM; in [11] it was 200 nM; in series [15], < 4.3 nM; in [3] it was 10.5 nM; in series [4] it was 6.6 nM; in series [5], < 3.7 nM. Also, the IC50 in [12] is 10.8 nM. The “Ratio EC50” value in series [13], in series [14] and in [16] was 2 - 568 throughout. Besides, the Ratio IC50 in series [17] fell in the range of 21 to 109.
